Like-named read-outs stand apart in the source and are kept apart here.
Assays:
[1] = molecular target: T1, Cyclin Dependent Kinase 1/Cyclin A2 (CDK1-cycA2) (Homo sapiens, UniProt P06493); assay: CDK1-cycA2 TR-FRET (Lance) enzyme assay; type: biochemical; settings: for Ki: Table O, enzymatic assay; for FS CDK1/CDK2: fold selectivity, enzymatic Ki ratio
T1 construct: purchased ProQinase 0134-0054-1
In short: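 TR-FRET (Lance) detection of phospho-4E-BP1 with a europium-labelled antibody after EDTA quench (15 mM final); signal taken as acceptor/donor ratio. Enzyme and compound were pre-incubated 30 min in HEPES pH 7.5 buffer with MgCl2, TCEP, BGG and Brij 35. Ki derived by Morrison fit.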

[2] = molecular target: T2, Cyclin Dependent Kinase 2/Cyclin E1 (CDK2-cycE1) (Homo sapiens, UniProt P24941); assay: CDK2-cycE1 TR-FRET (LANCE) enzyme assay; type: biochemical; settings: for FS CDK1/CDK2 / FS CDK4/CDK2: fold selectivity;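 on improvement in potency against CDK2 (Ki) over Comparator C: fold lower CDK2 Ki than comparator c (Ki 0.032 µM)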
T2 construct: purchased ProQinase 0050-0055-1
In short: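 Kinase reaction buffer: 50 mM HEPES pH 7.5, 10 mM MgCl2, 2 mM TCEP, 0.05% BGG, 0.01% Brij 35, with 30 min compound–enzyme pre-incubation.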

[3] = molecular target: T3, Cyclin Dependent Kinase 4/Cyclin D3 (CDK4-cycD3) (Homo sapiens, UniProt P11802); assay: CDK4-cycD3 TR-FRET (LANCE) enzyme assay; type: biochemical; settings: for Ki: Table O, enzymatic assay; for FS CDK4/CDK2: fold selectivity, enzymatic Ki ratio
T3 construct: purchased Carna Biosciences 04-105
In short: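 Compound dose responses pre-incubated 30 min with enzyme mix in 50 mM HEPES pH 7.5, 10 mM MgCl2, 2 mM TCEP, 0.05% BGG, 0.01% Brij 35. Reaction quenched with EDTA (15 mM final); Eu-anti-phospho-4E-BP1 TR-FRET detection, acceptor/donor ratio. Ki derived by Morrison equation.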

[4] = system: OVISE (JCRB1043, CCNE1-amplified); assay: OVISE EdU incorporation cell proliferation assay (CDK2-dependent); type: cell-based; settings: for IC50: cellular assay, read-out: CDK2 OVISE IC50; for FS SKOV-3/OVISE / FS p-H3/OVISE: fold selectivity; for FS p-H3/OVISE: cellular p-H3 IC50 over OVISE IC50
In short: (§1)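 EdU incorporation (0.5 μM final, last 8 h) follows a 16 h compound exposure at 37 °C, 5% CO2 in RPMI plus 10% FBS, 0.5% DMSO. After fixation, imaging scores EdU-positive cells; a 4-parameter logistic fit of that fraction gives IC50.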

SKOV-3 (ATCC HTB-77) = assay: SKOV-3 EdU incorporation cell proliferation assay (CDK4/6-dependent); type: cell-based; settings: for IC50: Homo sapiens, cellular assay, read-out: CDK4/6 SKOV-3 IC50; for FS SKOV-3/OVISE: fold selectivity, cellular IC50 ratio
In short: as §1

HCT116 cells = assay: p-H3 HCT-116 mitotic release cell proliferation assay (cellular CDK1); type: cell-based; settings: Homo sapiens, HCT-116; Table O, cellular assay; read-out: CDK1 p-H3 IC50
In short: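 Phospho-Histone H3 (Ser10) in lysates was quantified by a two-antibody HTRF FRET read (≥2 h, room temperature). Before this, HCT116 cells held in mitosis by 16 h of 500 nM nocodazole were treated with compound for 4 h at 37 °C, 0.1% DMSO.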

[5] = Table O, enzymatic assay, read-out: CDK2 Ki
[6] = Table O, enzymatic CDK1 Ki over CDK2 Ki
[7] = Table O, enzymatic CDK4 Ki over CDK2 Ki
[8] = Table O, cellular SKOV-3 IC50 over OVISE IC50

T3 sequence (P11802 whole entry): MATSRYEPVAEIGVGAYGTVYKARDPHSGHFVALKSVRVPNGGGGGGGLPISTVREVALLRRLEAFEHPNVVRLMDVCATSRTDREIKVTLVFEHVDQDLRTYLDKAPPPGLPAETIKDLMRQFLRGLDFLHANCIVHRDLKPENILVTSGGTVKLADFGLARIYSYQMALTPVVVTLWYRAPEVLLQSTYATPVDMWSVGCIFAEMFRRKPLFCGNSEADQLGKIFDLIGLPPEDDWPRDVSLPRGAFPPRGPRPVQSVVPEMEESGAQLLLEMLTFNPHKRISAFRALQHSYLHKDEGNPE
T3 sequence (P30281 whole entry partner): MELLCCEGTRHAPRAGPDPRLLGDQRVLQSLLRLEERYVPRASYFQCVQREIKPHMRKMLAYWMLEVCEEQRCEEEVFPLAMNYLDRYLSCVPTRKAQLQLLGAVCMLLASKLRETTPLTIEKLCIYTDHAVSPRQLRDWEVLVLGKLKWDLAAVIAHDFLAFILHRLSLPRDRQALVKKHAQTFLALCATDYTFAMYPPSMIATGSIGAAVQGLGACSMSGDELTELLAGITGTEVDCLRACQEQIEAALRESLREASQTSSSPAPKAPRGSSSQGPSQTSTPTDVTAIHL
T1 sequence (P06493 whole entry): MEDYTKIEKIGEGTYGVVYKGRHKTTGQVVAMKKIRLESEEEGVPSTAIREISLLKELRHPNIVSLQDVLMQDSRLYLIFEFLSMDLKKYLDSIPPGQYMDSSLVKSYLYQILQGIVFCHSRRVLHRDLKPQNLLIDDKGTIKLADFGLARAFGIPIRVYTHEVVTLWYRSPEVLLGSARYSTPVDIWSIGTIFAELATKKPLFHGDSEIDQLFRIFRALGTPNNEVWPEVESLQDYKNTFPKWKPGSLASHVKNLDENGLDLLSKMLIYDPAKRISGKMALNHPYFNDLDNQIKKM
T1 sequence (P20248 whole entry partner): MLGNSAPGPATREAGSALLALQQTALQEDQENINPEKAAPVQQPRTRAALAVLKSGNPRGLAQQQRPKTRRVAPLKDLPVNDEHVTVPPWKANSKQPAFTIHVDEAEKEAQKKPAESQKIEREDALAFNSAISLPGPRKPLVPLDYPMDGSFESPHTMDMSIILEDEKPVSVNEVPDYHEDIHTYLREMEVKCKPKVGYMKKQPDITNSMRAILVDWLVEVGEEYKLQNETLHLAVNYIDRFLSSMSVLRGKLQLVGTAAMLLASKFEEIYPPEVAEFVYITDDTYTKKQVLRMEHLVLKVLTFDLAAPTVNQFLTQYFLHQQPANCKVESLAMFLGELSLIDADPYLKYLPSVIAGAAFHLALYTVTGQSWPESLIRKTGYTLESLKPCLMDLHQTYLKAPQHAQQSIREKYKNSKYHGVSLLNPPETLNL

O=C(NC12CC(C1)C2)O[C@@H]1CC[C@H](c2cc(Nc3cccnn3)n[nH]2)C1 [Example 3, (1R,3S)-3-(3-(pyridazin-3-ylamino)-1H-pyrazol-5-yl)cyclopentyl bicyclo[1.1.1]pentan-1-ylcarbamate]
Ki [1]: 0.047 µM
Ki [2, 5]: 0.0018 µM
FS CDK1/CDK2 [2, 6]: 26
FS CDK4/CDK2 [2, 7]: 61
Ki [3]: 0.11 µM
IC50 ([4]; Table O): 0.15 µM
FS SKOV-3/OVISE [4, 8]: 15
FS p-H3/OVISE ([4]; Table O): 0.49
IC50 (SKOV-3 (ATCC HTB-77); SK-OV-3, Table O): 2.3 µM
IC50 (HCT116 cells): 0.073 µM

CNC(=O)c1cc(C)c(Nc2cc([C@H]3CC[C@@H](OC(=O)NC45CC(C4)C5)C3)[nH]n2)cn1 [Example 9C, (1R,3S)-3-(3-((4-methyl-6-(methylcarbamoyl)pyridin-3-yl)amino)-1H-pyrazol-5-yl)cyclopentyl bicyclo[1.1.1]pentan-1-ylcarbamate]
Ki [1]: 0.19 µM
Ki [2, 5]: 0.002 µM
FS CDK1/CDK2 [2, 6]: 95
FS CDK4/CDK2 [2, 7]: 200
Ki [3]: 0.4 µM
IC50 ([4]; Table O): 0.18 µM
FS SKOV-3/OVISE [4, 8]: 51
FS p-H3/OVISE ([4]; Table O): 1.0
IC50 (SKOV-3 (ATCC HTB-77); SK-OV-3, Table O): 9.1 µM
IC50 (HCT116 cells): 0.18 µM

Cn1nc(Nc2cc([C@H]3CC[C@@H](OC(=O)NC45CC(C4)C5)C3)[nH]n2)ccc1=O [Example 6, (1R,3S)-3-(5-((1-methyl-6-oxo-1,6-dihydropyridazin-3-yl)amino)-1H-pyrazol-3-yl)cyclopentyl bicyclo[1.1.1]pentan-1-ylcarbamate]
Ki [1]: 0.021 µM
Ki [2, 5]: < 0.0001 µM
FS CDK1/CDK2 [2, 6]: >33
FS CDK4/CDK2 [2, 7]: >320
Ki ([2]; read-out: CDK2 activity / potency (enzymatic assay)): ≤ 0.001 µM
Ki [3]: 0.02 µM
IC50 ([4]; Table O): 0.016 µM
FS SKOV-3/OVISE [4, 8]: 81
FS p-H3/OVISE ([4]; Table O): 1.4
IC50 (SKOV-3 (ATCC HTB-77); SK-OV-3, Table O): 1.3 µM
IC50 (HCT116 cells): 0.023 µM

CC(C)NC(=O)O[C@@H]1CC[C@H](c2cc(Nc3cccnc3)n[nH]2)C1 [Example 2A, (1R,3S)-3-(3-(pyridin-3-ylamino)-1H-pyrazol-5-yl)cyclopentyl isopropylcarbamate]
Ki [1]: 0.071 µM
FS CDK1/CDK2 increased over Comparator D, (+) sign ([1]; Table R): (+)
FS CDK1/CDK2 ([1]; Table R): 42
FS CDK1/CDK2 ([1]; Table S): 42
improvement in potency against CDK2 (Ki) over Comparator C [2]: 19 fold
Ki [2, 5]: 0.0017 µM
FS CDK1/CDK2 [2, 6]: 42
FS CDK4/CDK2 [2, 7]: 44
increased fold-selectivity CDK1/CDK2 over Comparator C ([2]; Table Q, (+) sign after FS CDK1/CDK2): (+) (The (+) sign in Table Q signifies desirable increased fold-selectivity of the exemplary compounds over Comparator C)
increased fold-selectivity CDK4/CDK2 over Comparator C ([2]; Table Q, (+) sign after FS CDK4/CDK2): (+) (The (+) sign in Table Q signifies desirable increased fold-selectivity of the exemplary compounds over Comparator C)
Ki ([2]; Table Q, enzymatic assay, read-out: CDK2 Ki): 0.0017 µM
FS CDK1/CDK2 ([2]; Table Q, enzymatic): 42
FS CDK4/CDK2 ([2]; Table Q, enzymatic): 44
Ki ([2]; Table R, enzymatic assay, read-out: CDK2 Ki): 0.0017 µM
CDK2 Ki fold change in potency versus Comparator D ([2]; Table R, in brackets after CDK2 Ki): 1.6 fold
Ki ([2]; Table S, enzymatic assay, read-out: CDK2 Ki): 0.0017 µM
CDK2 Ki fold change in potency versus Comparator E ([2]; Table S, in brackets after CDK2 Ki): 0.3 fold
Ki [3]: 0.075 µM
FS CDK4/CDK2 increased over Comparator D, (+) sign ([3]; Table R): (+)
FS CDK4/CDK2 ([3]; Table R): 44
FS CDK4/CDK2 ([3]; Table S): 44
CDK2 cell potency compared with Comparator E ([4]; CDK2 OVISE cellular assay data): more potent CDK2 cell inhibitors compared to Comparator E
IC50 ([4]; Table O): 0.11 µM
FS SKOV-3/OVISE [4, 8]: 20
FS p-H3/OVISE ([4]; Table O): 0.66
increased fold-selectivity SKOV-3/OVISE over Comparator C ([4]; Table Q, (+) sign after FS SKOV-3/OVISE): (+) (The (+) sign in Table Q signifies desirable increased fold-selectivity of the exemplary compounds over Comparator C)
FS SKOV-3/OVISE ([4]; Table Q, cellular): 20
improvement in CDK2 OVISE cell potency over Comparator C ([4]; Table Q, in brackets after OVISE IC50, Comparator C 5.5 μM): 50 fold
CDK2 OVISE IC50 fold change in potency versus Comparator D ([4]; Table R, in brackets after OVISE IC50): 35 fold
CDK2 OVISE IC50 fold change in potency versus Comparator E ([4]; Table S, in brackets after OVISE IC50): 1.5 fold
IC50 (SKOV-3 (ATCC HTB-77); SK-OV-3, Table O): 2.2 µM
IC50 (SKOV-3 (ATCC HTB-77); SK-OV-3, Table Q): 2.2 µM
IC50 (SKOV-3 (ATCC HTB-77); SK-OV-3, Table R): 2.2 µM
IC50 (SKOV-3 (ATCC HTB-77); SK-OV-3, Table S): 2.2 µM
selectivity for CDK2 over CDK4 compared with Comparator E (SKOV-3 (ATCC HTB-77); SKOV-3/OVISE fold-selectivity cellular assay data): increase in selectivity for CDK2 over CDK4
FS SKOV-3/OVISE increased over Comparator D, (+) sign (SKOV-3 (ATCC HTB-77); Table R): (+)
FS SKOV-3/OVISE (SKOV-3 (ATCC HTB-77); Table R): 20
FS SKOV-3/OVISE increased over Comparator E, (+) sign (SKOV-3 (ATCC HTB-77); Table S): (+)
FS SKOV-3/OVISE (SKOV-3 (ATCC HTB-77); Table S): 20
IC50 (HCT116 cells): 0.094 µM

Source: patent publication US20240425478A1, “CYCLOPENTYLPYRAZOLE CDK2 INHIBITORS” (Genentech, Inc., priority 2021, published 2024)
